Source: ChEMBL document CHEMBL1201862, “PubChem BioAssay data set” (2004)
Several values for one entry are separate records, joined by “and”; a condition that tells them apart may be missing. Equal entries are not always repeated.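 Test compounds were applied to cells in 96-well plates for 48 hours at 5 doses. At the GI50, growth is halved.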 Activity calls are given as the source filed them. Cut-off read from the data, not from the text of the source: active = GI50 up to about 1.1 µM and inactive = higher.

Key:
Assay in all cases: NCI-60 cell line screen, 48 h
[1] = test system: HL-60
[2] = test system: TK-10
[3] = test system: A498
[4] = test system: SK-MEL-2
[5] = test system: SF-268
[6] = test system: M19-MEL
[7] = test system: U-251
[8] = test system: OVCAR-3
[9] = test system: A549
[10] = test system: SNB-19
[11] = test system: K562
[12] = test system: UO-31
[13] = test system: HOP-62
[14] = test system: KM12
[15] = test system: OVCAR-5
[16] = test system: SF-539
[17] = test system: SK-MEL-5

Measured: GI50

NC(=S)N/N=C1\CCCC\C1=C/c1ccccc1
inactive: [1] 1.88 µM | [2] 39.9 µM | [3] > 100 µM | [4] 73.3 µM | [5] 54 µM | [6] 81.1 µM | [7] 40.5 µM | [8] 39.1 µM | [9] > 100 µM | [10] > 100 µM | [11] 2.71 µM | [12] 32.5 µM | [13] > 100 µM | [14] 45.1 µM | [15] 12.8 µM | [16] 93.8 µM

N=C(N)n1ncc(Cl)c(Cl)c1=O
inactive: [1] 2.21 µM | [2] 19.4 µM | [3] 18.6 µM | [4] 2.47 µM | [5] 3.11 µM | [6] 1.69 µM | [7] 7.11 µM | [8] 1.91 µM | [9] 17.1 µM | [10] 4.16 µM | [11] 2.32 µM | [12] 2.38 µM | [14] 6.5 µM | [15] 15.2 µM | [16] 2.34 µM | [17] 4.39 µM

NCCCNCCSSC/C=C\CSSCCNCCCN
inactive: [1] 16.6 µM and 19.2 µM | [2] > 100 µM and 60.3 µM | [3] > 100 µM | [4] 50.1 µM | [5] > 100 µM and 57.8 µM | [6] 64.6 µM | [7] > 100 µM and 53.8 µM | [8] 40.5 µM and 42 µM | [10] > 100 µM | [11] 19.2 µM and 18.4 µM | [12] 65 µM and 63.4 µM | [14] 17.7 µM and 18.9 µM | [15] > 100 µM | [16] 72.4 µM and 89.3 µM | [17] 41.1 µM and 62.1 µM

CCOC(=O)C1N(S(=O)(=O)c2ccc(C)cc2)CCC12c1ccccc1N(C(C)=O)C2C(/C=C/C(=O)OC)=C/C(=O)OC (stereo not drawn)
inactive: [1] 66.8 µM | [2] > 100 µM | [3] > 100 µM | [5] > 100 µM | [6] > 100 µM | [7] > 100 µM | [8] > 100 µM | [9] 84.1 µM | [10] > 100 µM | [11] 85.3 µM | [12] > 100 µM | [13] > 100 µM | [14] > 100 µM | [15] > 100 µM | [16] > 100 µM | [17] > 100 µM

C/C(=N\Nc1ccc([N+](=O)[O-])cc1)C(=O)N(C)Nc1ccccc1
inactive: [1] 65.3 µM | [2] 64.3 µM | [3] 29 µM | [4] 29.1 µM | [6] 69.5 µM | [7] 62.1 µM | [8] 43.9 µM | [9] 40.5 µM | [10] > 100 µM | [11] 63.2 µM | [12] 39.9 µM | [13] > 100 µM | [14] 24 µM | [16] 76.4 µM

COC(=O)C1C(=O)N(CCc2c[nH]c3ccccc23)C[C@@H]2CCC(=O)C[C@H]12 (stereo partly drawn)
inactive: [1] > 100 µM | [2] > 100 µM | [3] > 100 µM | [4] > 100 µM | [5] > 100 µM | [6] > 100 µM | [7] > 100 µM | [8] > 100 µM | [9] > 100 µM | [10] > 100 µM | [11] > 100 µM | [12] > 100 µM | [13] > 100 µM | [14] > 100 µM | [16] > 100 µM | [17] > 100 µM

CC1CC[C@]2(C(=O)O)CCC3(COC(=O)/C=C\c4ccc(O)cc4)C(=CCC4[C@@]5(C)CC[C@H](O)C(C)(C)C5CC[C@]43C)[C@@H]2[C@H]1C (stereo partly drawn)
inactive: [1] 26.2 µM | [2] 21.7 µM | [3] 27 µM | [4] 20.8 µM | [5] 14.7 µM | [6] 21.7 µM | [7] 9.79 µM | [8] 18.2 µM | [9] 11.3 µM | [10] 12.3 µM | [11] 13 µM | [12] 17.7 µM | [14] 7.21 µM | [15] 19.5 µM | [16] 15.8 µM | [17] 18.2 µM

CC12CCC[C@@](C)(C(=O)OC3OC(CO)C(O)C(O)C3O)[C@H]1CCC13CC4CC(OC4(CO)[C@H]1O)[C@@H]23 (stereo partly drawn)
inactive: [2] > 100 µM | [3] > 100 µM | [4] > 100 µM | [5] > 100 µM | [6] > 100 µM | [7] > 100 µM | [8] > 100 µM | [9] > 100 µM | [10] > 100 µM | [11] > 100 µM | [12] > 100 µM | [13] > 100 µM | [14] > 100 µM | [15] > 100 µM | [16] > 100 µM | [17] > 100 µM

CC1CC2C3CC(F)C4=CC(=O)C=CC4(C)C3(F)C(O)CC2(C)C1(O)C(=O)CO (stereo not drawn)
inactive: [1] > 100 µM | [2] > 100 µM | [4] > 100 µM | [5] > 100 µM | [6] > 100 µM | [7] > 100 µM | [8] > 100 µM | [9] > 100 µM | [10] > 100 µM | [11] > 100 µM | [12] > 100 µM | [13] > 100 µM | [14] > 100 µM | [15] > 10 µM | [16] > 100 µM | [17] > 100 µM

O=C(CCC(=O)C1Cc2ccccc2C1=O)Nc1cccc(C(F)(F)F)c1 (stereo not drawn)
inactive: [1] > 100 µM | [2] > 100 µM | [4] > 100 µM | [5] > 100 µM | [6] > 100 µM | [7] > 100 µM | [8] > 100 µM | [9] > 100 µM | [10] > 100 µM | [11] > 100 µM | [12] > 100 µM | [13] > 100 µM | [14] > 100 µM | [15] > 100 µM | [16] > 100 µM | [17] > 100 µM

O=C(Nc1ccc(Cl)c(Cl)c1)C1C(=O)N(c2ccc(Cl)c(Cl)c2)C(=O)/C1=N\O (stereo not drawn)
inactive: [2] > 100 µM | [3] > 100 µM | [4] > 100 µM | [5] > 100 µM | [6] 31.8 µM | [7] 66.8 µM | [8] > 100 µM | [9] 36.6 µM | [10] > 100 µM | [11] 16.9 µM | [12] > 100 µM | [13] > 100 µM | [15] > 100 µM | [16] > 100 µM | [17] > 100 µM

NC(=O)c1ccc(Cl)c([N+](=O)[O-])c1
inactive: [1] > 100 µM | [2] > 100 µM | [3] > 100 µM | [5] > 100 µM | [6] > 100 µM | [7] > 100 µM | [8] > 100 µM | [9] > 100 µM | [10] > 100 µM | [11] > 100 µM | [12] > 100 µM | [13] > 100 µM | [14] > 100 µM | [15] > 100 µM | [16] > 100 µM | [17] > 100 µM
